Data taken from ChEMBL document CHEMBL3120080, “Characterization of lovastatin-docosahexaenoate anticancer properties against breast cancer cells” (Bioorg Med Chem, 2014).
The source made the active and inactive calls. The calls are words filed in the database; no cut-off is given here.

Tests used:
MDA-MB-231 [1] = experiment: Cell cycle arrest in PR, ER, HER2-negative human MDA-MB-231 cells assessed as accumulation at G0/G1 phase at 1 uM after 30 hrs by flow cytometer (reference value: 49.8 +/-1.5%); format: functional
HMEC [2] = experiment: Cytotoxicity against human HMEC at 25 uM after 48 hrs by WST-1 assay; format: cell-based
MDA-MB-231 [3] = experiment: Growth inhibition of PR, ER, HER2-negative human MDA-MB-231 cells at 1 uM after 48 hrs by WST-1 assay in presence of mevalonate; format: functional, cell-based
MDA-MB-231 [4] = experiment: Cell cycle arrest in PR, ER, HER2-negative human MDA-MB-231 cells assessed as accumulation at S phase at 10 uM after 30 hrs by flow cytometer (reference value: 33.1 +/-0.3%); format: functional
MDA-MB-231 [5] = experiment: Downregulation of p21 expression in human PR, ER, HER2-negative human MDA-MB-231 cells at 10 uM after 24 hrs by western blot analysis; format: functional, cell-based
MDA-MB-361 [6] = experiment: Cytotoxicity against ER-positive, HER2-positive human MDA-MB-361 cells at higher concentration after 48 hrs by WST-1 assay; format: functional, cell-based
MDA-MB-231 [7] = experiment: Induction of apoptosis in human MDA-MB-231 cells assessed as apoptotic cells at 10 uM after 48 hrs by annexin V/propidium iodide based flow cytometry (reference value: 2.4 +/-0.5%); format: functional
MCF7 [8] = experiment: Growth inhibition of ER-positive, HER2-negative human MCF7 cells after 48 hrs by WST-1 assay; format: functional, cell-based
MDA-MB-231 [9] = experiment: Induction of apoptosis in human MDA-MB-231 cells assessed as necrotic cells at 1 uM after 48 hrs by annexin V/propidium iodide based flow cytometry (reference value: 4.4 +/-0.4%); format: functional
MDA-MB-468 [10] = experiment: Cytotoxicity against PR, ER, HER2-negative human MDA-MB-468 cells at >7.5 uM after 48 hrs by WST-1 assay; format: functional, cell-based
MDA-MB-231 [11] = experiment: Induction of apoptosis in human MDA-MB-231 cells assessed as necrotic cells at 10 uM after 48 hrs by annexin V/propidium iodide based flow cytometry (reference value: 4.4 +/-0.4%); format: functional
HMEC [12] = experiment: Cytotoxicity against human HMEC at >15 uM after 48 hrs by WST-1 assay; format: cell-based
MDA-MB-231 [13] = experiment: Cytotoxicity against PR, ER, HER2-negative human MDA-MB-231 cells assessed as decrease in cell viability at >5 uM after 48 hrs by WST-1 assay; format: functional, cell-based
MDA-MB-231 [14] = experiment: Induction of apoptosis in human MDA-MB-231 cells assessed as viable cells at 10 uM after 48 hrs by annexin V/propidium iodide based flow cytometry (reference value: 93.2 +/-0.9%); format: functional; conditions: MDA-MB-231, 48 h, read-out: Activity
AU565 [15] = experiment: Growth inhibition of ER-negative, HER2-positive human AU565 cells at >5 uM after 48 hrs by WST-1 assay; format: functional, cell-based
MDA-MB-231 [16] = experiment: Cell cycle arrest in PR, ER, HER2-negative human MDA-MB-231 cells assessed as accumulation at S phase at 1 uM after 30 hrs by flow cytometer (reference value: 33.1 +/-0.3%); format: functional
Serum = experiment: Stability of the compound in mouse serum at 1 mM after 2 hrs by RP-HPLC analysis; format: ADME; conditions: 1000 µM
MDA-MB-231 [17] = experiment: Induction of apoptosis in human MDA-MB-231 cells assessed as viable cells at 5 uM after 48 hrs by annexin V/propidium iodide based flow cytometry (reference value: 93.2 +/-0.9%); format: functional; conditions: MDA-MB-231, 48 h, read-out: Activity
MDA-MB-231 [18] = experiment: Cell cycle arrest in PR, ER, HER2-negative human MDA-MB-231 cells assessed as accumulation at G2/M phase at 10 uM after 30 hrs by flow cytometer (reference value: 17.1 +/-2.1%); format: functional
MDA-MB-231 [19] = experiment: Stability of the compound in human MDA-MB-231 cells assessed as DHA content at 5 uM after 24 hrs by gas chromatography; format: ADME, cell-based; conditions: mda-mb-231, 24 h
MDA-MB-231 [20] = experiment: Induction of apoptosis in human MDA-MB-231 cells assessed as apoptotic cells at 5 uM after 48 hrs by annexin V/propidium iodide based flow cytometry (reference value: 2.4 +/-0.5%); format: functional
MDA-MB-231 [21] = experiment: Induction of apoptosis in human MDA-MB-231 cells assessed as necrotic cells at 5 uM after 48 hrs by annexin V/propidium iodide based flow cytometry (reference value: 4.4 +/-0.4%); format: functional
MDA-MB-231 [22] = experiment: Induction of apoptosis in human MDA-MB-231 cells assessed as viable cells at 1 uM after 48 hrs by annexin V/propidium iodide based flow cytometry (reference value: 93.2 +/-0.9%); format: functional; conditions: MDA-MB-231, 48 h, read-out: Activity
AU565 [23] = experiment: Cytotoxicity against ER-negative, HER2-positive human AU565 cells after 48 hrs by WST-1 assay; format: functional, cell-based
MDA-MB-231 [24] = experiment: Cell cycle arrest in PR, ER, HER2-negative human MDA-MB-231 cells assessed as accumulation at G2/M phase at 1 uM after 30 hrs by flow cytometer (reference value: 17.1 +/-2.1%); format: functional
MDA-MB-231 [25] = experiment: Cell cycle arrest in PR, ER, HER2-negative human MDA-MB-231 cells assessed as accumulation at G0/G1 phase at 10 uM after 30 hrs by flow cytometer (reference value: 49.8 +/-1.5%); format: functional
MDA-MB-231 [26] = experiment: Induction of apoptosis in human MDA-MB-231 cells assessed as apoptotic cells at 1 uM after 48 hrs by annexin V/propidium iodide based flow cytometry (reference value: 2.4 +/-0.5%); format: functional
MDA-MB-468 [27] = experiment: Total growth inhibition of PR, ER, HER2-negative human MDA-MB-468 cells after 48 hrs by WST-1 assay; format: functional, cell-based
MCF7 [28] = experiment: Total growth inhibition of ER-positive, HER2-negative human MCF7 cells after 48 hrs by WST-1 assay; format: functional, cell-based
MDA-MB-468 [29] = experiment: Cytotoxicity against PR, ER, HER2-negative human MDA-MB-468 cells after 48 hrs by WST-1 assay; format: functional, cell-based
MDA-MB-231 [30] = experiment: Total growth inhibition of PR, ER, HER2-negative human MDA-MB-231 cells at >10 uM after 48 hrs by WST-1 assay; format: functional, cell-based
HMEC [31] = experiment: Cytotoxicity against human HMEC assessed as growth inhibition after 48 hrs by WST-1 assay; format: cell-based
MDA-MB-231 [32] = experiment: Cytotoxicity against PR, ER, HER2-negative human MDA-MB-231 cells after 48 hrs by WST-1 assay; format: functional, cell-based
MDA-MB-231 [33] = experiment: Induction of p21 expression in human PR, ER, HER2-negative human MDA-MB-231 cells at 1 to 10 uM after 24 hrs by western blot analysis; format: functional, cell-based
MDA-MB-231 [34] = experiment: Growth inhibition of PR, ER, HER2-negative human MDA-MB-231 cells after 48 hrs by WST-1 assay in presence of geranylgeranyl pyrophosphate; format: functional, cell-based
AU565 [35] = experiment: Growth inhibition of ER-negative, HER2-positive human AU565 cells after 48 hrs by WST-1 assay; format: functional, cell-based
MDA-MB-361 [36] = experiment: Growth inhibition of ER-positive, HER2-positive human MDA-MB-361 cells after 48 hrs by WST-1 assay; format: functional, cell-based
MDA-MB-468 [37] = experiment: Growth inhibition of PR, ER, HER2-negative human MDA-MB-468 cells after 48 hrs by WST-1 assay; format: functional, cell-based
MDA-MB-231 [38] = experiment: Growth inhibition of PR, ER, HER2-negative human MDA-MB-231 cells at <25 uM after 48 hrs by WST-1 assay; format: functional, cell-based
AU565 [39] = experiment: Total growth inhibition of ER-negative, HER2-positive human AU565 cells at >15 uM after 48 hrs by WST-1 assay; format: functional, cell-based

| Compound | Activity (MDA-MB-231 [1]) [%] | growth inhibition (GI) (MDA-MB-231 [3]) | Activity (MDA-MB-231 [4]) [%] | inhibition (MDA-MB-231 [5]) | Activity (MDA-MB-231 [7]) [%] | growth inhibition (GI) (MCF7 [8]) | Activity (MDA-MB-231 [9]) [%] | Activity (MDA-MB-231 [11]) [%] | viability at 10 µM (MDA-MB-231 [14]) [%] | Activity (MDA-MB-231 [16]) [%] | viability at 5 µM (MDA-MB-231 [17]) [%] | Activity (MDA-MB-231 [18]) [%] | Activity (MDA-MB-231 [20]) [%] | Activity (MDA-MB-231 [21]) [%] | viability at 1 µM (MDA-MB-231 [22]) [%] | Activity (MDA-MB-231 [24]) [%] | Activity (MDA-MB-231 [25]) [%] | Activity (MDA-MB-231 [26]) [%] | Activity (HMEC [31]) | growth inhibition (GI) (MDA-MB-361 [36]) | further results |
| --- | --- | --- | --- | --- | --- | --- | --- | --- | --- | --- | --- | --- | --- | --- | --- | --- | --- | --- | --- | --- | --- |
| CC/C=C\C/C=C\C/C=C\C/C=C\C/C=C\C/C=C\CCC(=O)O[C@H]1CC(=O)O[C@H](CC[C@@H]2[C@@H]3C(=C[C@H](C)C[C@@H]3OC(=O)[C@@H](C)CC)C=C[C@@H]2C)C1 | 47.8 | Active | 34.8 | Active | 24.6 | Active | 6.7 | 35.4 | 40 | 34.9 | 83.3 | 14.1 | 7.2 | 9.6 | 84.1 | 17.3 | 51.2 | 9.2 |  |  | Activity (HMEC [2]): 25%; Activity (MDA-MB-361 [6]): Active; Activity (MDA-MB-468 [10]): Active; Activity (HMEC [12]): Toxic; Activity (MDA-MB-231 [13]): Active; growth inhibition (GI) (AU565 [15]): Active; Stability (Serum): Stable; Stability (MDA-MB-231 [19]): Stable; Activity (AU565 [23]): inactive |
| CC[C@H](C)C(=O)O[C@H]1C[C@@H](C)C=C2C=C[C@H](C)[C@H](CC[C@@H]3C[C@@H](O)CC(=O)O3)[C@H]21 [LOVASTATIN] | 74.7 | inactive | 9.8 |  | 4.6 |  | 7.8 | 11.2 | 84.2 | 16.3 | 84.3 | 6.3 | 4.9 | 10.8 | 89.7 | 9 | 83.9 | 2.5 | Toxic | Active | TGI (MDA-MB-468 [27]): Active; TGI (MCF7 [28]): Active; Activity (MDA-MB-468 [29]): inactive; TGI (MDA-MB-231 [30]): Active; Activity (MDA-MB-231 [32]): inactive; Activity (MDA-MB-231 [33]): Active; growth inhibition (GI) (MDA-MB-231 [34]): inactive; growth inhibition (GI) (AU565 [35]): Active |
| CC/C=C\C/C=C\C/C=C\C/C=C\C/C=C\C/C=C\CCC(=O)O [DOCONEXENT] | 48.7 |  | 33 | Active | 1.9 | Active | 2.9 | 5.6 | 92.5 | 33.8 | 96.5 | 16.2 | 1.1 | 2.4 | 94.5 | 17.5 | 50.8 | 2.6 | Dose-dependent effect | Active | growth inhibition (GI) (MDA-MB-468 [37]): Active; growth inhibition (GI) (MDA-MB-231 [38]): Active; TGI (AU565 [39]): Active |
